Experimental data: publication PMC8536124 (International Journal of Molecular Sciences, 2021)

Experiments:
[1] = system: OVCAR-5; assay: NCI-60 screening (SRB); assay type: cell-based, human; settings: five-dose; for GI50 / CC50: Homo sapiens; for CC50: read-out: LC50 (the source's name)
[2] = system: HOP-62; assay: NCI-60 screening (SRB); assay type: cell-based, human; settings: five-dose; for GI50 / LC50: Homo sapiens
[3] = system: KM12; assay: NCI-60 screening (SRB); assay type: cell-based, human; settings: five-dose; for GI50 / CC50: Homo sapiens; for CC50: read-out: LC50 (the source's name)
[4] = system: SK-OV-3; assay: NCI-60 screening (SRB); assay type: cell-based, human; settings: five-dose; for GI50 / CC50: Homo sapiens; for CC50: read-out: LC50 (the source's name)
[5] = system: SF-268; assay: NCI-60 screening (SRB); assay type: cell-based, human; settings: five-dose; for GI50 / CC50: Homo sapiens; for CC50: read-out: LC50 (the source's name)
[6] = system: TK-10; assay: NCI-60 screening (SRB); assay type: cell-based, human; settings: five-dose; for GI50 / CC50: Homo sapiens; for CC50: read-out: LC50 (the source's name)
[7] = system: Melanoma; assay: NCI-60 screening (SRB), subpanel; assay type: cell-based; settings: for GI50 / CC50: Homo sapiens; for GI50 / CC50 / TGI MG_MID: Melanoma subpanel, five-dose; for GI50: read-out: GI50 MG_MID; for CC50: read-out: LC50 MG_MID; for SI (TGI): Melanoma, MG_MID60/subpanel MG_MID
Excerpt: (§1) The experimental data allow the assessment of the cytostatic effect, indicated by growth inhibition values ranging between 0 and 100, as well as of the cytotoxic effect, indicated by negative values.
(§2) The mean GI50 (molar concentration of the compound that inhibits 50% net cell growth), TGI (molar concentration of the compound leading to the total inhibition), and LC50 (molar concentration of the compound leading to 50% net cell death (presented in negative logarithm)) values across each cell line are shown in Table 2.
(§3) The selectivity index (SI), calculated as the ratio between the full panel MG_MID60 (μM) of compounds 4, 6, and 9 by their respective subpanels MG_MID of the cell line (μM), was introduced as a quantification tool for the selectivity of each compound in terms of anticancer effect (Table 3).
(§4) Primary anticancer assays were performed according to the NCI protocol, as described elsewhere (see e.g., http://dtp.nci.nih.gov accessed on 1 November 2018). The compounds were added at a single concentration, and the cell cultures were incubated for 48 h. The end point determinations were made with a protein-binding dye, sulforhodamine B (SRB). […] The percentage of growth was evaluated spectrophotometrically versus controls not treated with test agents after 48 h exposure and using SRB protein assay to estimate cell viability or growth. Three antitumor activity dose-response parameters were calculated for each cell line. Furthermore, mean graph midpoints (MG_MID) were calculated for each of the parameters, giving an average activity parameter over all cell lines for the tested compound. For the MG_MID calculation, insensitive cell lines were included with the highest concentration tested.

[8] = system: Breast cancer; assay: NCI-60 screening (SRB), subpanel; assay type: cell-based; settings: for TGI MG_MID / GI50 / CC50: Breast cancer subpanel, five-dose; for SI (TGI): Breast cancer, MG_MID60/subpanel MG_MID; for GI50 / CC50: Homo sapiens; for GI50: read-out: GI50 MG_MID; for CC50: read-out: LC50 MG_MID
Excerpt: as §1, §2, §3, §4

[9] = system: IGROV1; assay: NCI-60 screening (SRB); assay type: cell-based, human; settings: for GI50 / CC50: Homo sapiens, IGROV-1, five-dose; for CC50: read-out: LC50 (the source's name); for TGI: five-dose
[10] = system: SF-539; assay: NCI-60 screening (SRB); assay type: cell-based, human; settings: SF-539, five-dose; for GI50 / CC50: Homo sapiens; for CC50: read-out: LC50 (the source's name)
[11] = system: U251; assay: NCI-60 screening (SRB); assay type: cell-based, human
[12] = system: UACC-62; assay: NCI-60 screening (SRB); assay type: cell-based, human; settings: five-dose; for GI50 / CC50: Homo sapiens; for CC50: read-out: LC50 (the source's name)
[13] = system: SN12C; assay: NCI-60 screening (SRB); assay type: cell-based, human; settings: five-dose; for GI50 / CC50: Homo sapiens; for CC50: read-out: LC50 (the source's name)
[14] = system: ACHN; assay: NCI-60 screening (SRB); assay type: cell-based, human; settings: five-dose; for GI50 / LC50: Homo sapiens
[15] = system: T-47D; assay: NCI-60 screening (SRB); assay type: cell-based, human; settings: five-dose; for GI50 / LC50 (concentration killing 50% of cells): Homo sapiens, T47D
[16] = system: UACC-257; assay: NCI-60 screening (SRB); assay type: cell-based, human; settings: five-dose; for GI50 / CC50: Homo sapiens; for CC50: read-out: LC50 (the source's name)
[17] = system: COLO 205; assay: NCI-60 screening (SRB); assay type: cell-based, human; settings: five-dose; for GI50 / CC50: Homo sapiens; for CC50: read-out: LC50 (the source's name)
[18] = system: A498; assay: NCI-60 screening (SRB); assay type: cell-based, human; settings: A498, five-dose; for GI50 / CC50: Homo sapiens; for CC50: read-out: LC50 (the source's name)
[19] = system: HCC-2998; assay: NCI-60 screening (SRB); assay type: cell-based, human; settings: five-dose; for GI50 / CC50: Homo sapiens; for CC50: read-out: LC50 (the source's name)
[20] = system: SNB-19; assay: NCI-60 screening (SRB); assay type: cell-based, human; settings: five-dose; for GI50 / CC50: Homo sapiens; for CC50: read-out: LC50 (the source's name)
[21] = system: HCT-15; assay: NCI-60 screening (SRB); assay type: cell-based, human; settings: five-dose; for GI50 / CC50: Homo sapiens; for CC50: read-out: LC50 (the source's name)
[22] = system: OVCAR-3; assay: NCI-60 screening (SRB); assay type: cell-based, human; settings: five-dose; for GI50 / CC50: Homo sapiens; for CC50: read-out: LC50 (the source's name)
[23] = system: HOP-92; assay: NCI-60 screening (SRB); assay type: cell-based, human; settings: five-dose; for GI50 / CC50: Homo sapiens; for CC50: read-out: LC50 (the source's name)
[24] = system: HS 578T; assay: NCI-60 screening (SRB); assay type: cell-based, human; settings: five-dose; for GI50 / CC50: Homo sapiens; for CC50: read-out: LC50 (the source's name)
[25] = system: MALME-3M; assay: NCI-60 screening (SRB); assay type: cell-based, human; settings: MALME-3M, five-dose; for GI50 / CC50: Homo sapiens; for CC50: read-out: LC50 (the source's name)
[26] = system: MDA-MB-468; assay: NCI-60 screening (SRB); assay type: cell-based, human; settings: five-dose; for GI50 / CC50: Homo sapiens; for CC50: read-out: LC50 (the source's name)
[27] = Homo sapiens, U-251, U251, five-dose

CCN1CCN(C(=O)[C@]23CCC(C)(C)C[C@H]2C2=CC[C@@H]4[C@@]5(C)C/C(=C/c6cccnc6)C(=O)C(C)(C)[C@@H]5CC[C@@]4(C)[C@]2(C)CC3)CC1 [Compound 6]
GI50 [1]: 1.56 µM
CC50 [1]: 7.19 µM
TGI [1]: 3.35 µM
GI50 [2]: 1.88 µM
LC50 [2]: 7.47 µM
TGI [2]: 3.75 µM
GI50 [3]: 1.58 µM
CC50 [3]: 6.75 µM
TGI [3]: 3.26 µM
GI50 [4]: 4.19 µM
CC50 [4]: 76.1 µM
GI50 [5]: 1.59 µM
CC50 [5]: 85.7 µM
TGI [5]: 4.79 µM
GI50 [6]: 3.86 µM
CC50 [6]: 54.1 µM
TGI [6]: 15.4 µM
GI50 [7]: 1.54 µM
CC50 [7]: 9.2 µM
TGI MG_MID [7]: 3.21 µM
SI (TGI) [7]: 1.96
TGI MG_MID [8]: 5.30 µM
SI (TGI) [8]: 1.17
GI50 [8]: 1.67 µM
CC50 [8]: 39.6 µM
GI50 [9]: 1.91 µM
CC50 [9]: 9.1 µM
TGI [9]: 4.16 µM
GI50 [10]: 1.62 µM
CC50 [10]: 5.55 µM
TGI [10]: 3.00 µM
GI50 [11, 27]: 1.58 µM
CC50 ([11]; Homo sapiens, U-251, U251, five-dose, read-out: LC50 (the source's name)): 6.13 µM
Growth % ([11]; U251 (CNS cancer), 1 dose 10 µM): −88.15%
TGI ([11]; U251, five-dose): 3.11 µM
GI50 [12]: 1.28 µM
CC50 [12]: 6.23 µM
TGI [12]: 2.83 µM
GI50 [13]: 1.22 µM
CC50 [13]: 5.3 µM
TGI [13]: 2.54 µM
GI50 [14]: 2.6 µM
LC50 [14]: 32.4 µM
TGI [14]: 10.5 µM
GI50 [15]: 2.61 µM
LC50 (concentration killing 50% of cells) [15]: > 100 µM
TGI [15]: 13.7 µM
GI50 [16]: 1.61 µM
CC50 [16]: 33.8 µM
TGI [16]: 4.29 µM
GI50 [17]: 1.89 µM
CC50 [17]: > 100 µM
TGI [17]: 4.74 µM
TGI [18]: 3.53 µM
GI50 [18]: 1.66 µM
CC50 [18]: 7.48 µM
GI50 [19]: 1.58 µM
CC50 [19]: 6.17 µM
TGI [19]: 3.12 µM
GI50 [20]: 1.68 µM
CC50 [20]: 7.12 µM
TGI [20]: 3.46 µM
GI50 [21]: 1.08 µM
CC50 [21]: 6.79 µM
TGI [21]: 2.71 µM
GI50 [22]: 1.51 µM
CC50 [22]: 5.73 µM
TGI [22]: 2.95 µM
GI50 [23]: 1.06 µM
CC50 [23]: 10.1 µM
TGI [23]: 3.26 µM
GI50 [24]: 1.83 µM
CC50 [24]: > 100 µM
TGI [24]: 5.37 µM
GI50 [25]: 1.53 µM
CC50 [25]: 5.54 µM
TGI [25]: 2.91 µM
GI50 [26]: 1.28 µM
CC50 [26]: 19.7 µM
TGI [26]: 3.94 µM

CCN1CCN(C(=O)[C@]23CC[C@@H](C)[C@H](C)[C@H]2C2=CC[C@@H]4[C@@]5(C)C/C(=C/c6cccnc6)C(=O)C(C)(C)[C@@H]5CC[C@@]4(C)[C@]2(C)CC3)CC1 [Compound 9, N-(2-{3-Pyridinylidene}-3-oxoursan-12-en-28-oyl)-ethylpiperazine]
GI50 [1]: 1.54 µM
CC50 [1]: 5.57 µM
TGI [1]: 2.93 µM
GI50 [2]: 2.43 µM
LC50 [2]: > 100 µM
TGI [2]: 5.86 µM
GI50 [3]: 1.75 µM
CC50 [3]: 7.23 µM
TGI [3]: 3.56 µM
GI50 [4]: 2.7 µM
CC50 [4]: 90.1 µM
TGI [4]: 9.02 µM
GI50 [5]: 1.77 µM
CC50 [5]: 9.15 µM
TGI [5]: 4.02 µM
GI50 [6]: 2.87 µM
CC50 [6]: 59.3 µM
TGI [6]: 9.40 µM
GI50 [7]: 1.56 µM
CC50 [7]: 25.1 µM
TGI MG_MID [7]: 3.66 µM
SI (TGI) [7]: 1.45
TGI MG_MID [8]: 5.37 µM
SI (TGI) [8]: 0.98
GI50 [8]: 1.91 µM
CC50 [8]: 36.9 µM
GI50 [9]: 1.89 µM
CC50 [9]: 7.94 µM
TGI [9]: 3.87 µM
GI50 [10]: 1.66 µM
CC50 [10]: 5.58 µM
TGI [10]: 3.05 µM
GI50 [11, 27]: 1.82 µM
TGI ([11]; U251, five-dose): 3.67 µM
GI50 [12]: 1.51 µM
CC50 [12]: 5.8 µM
TGI [12]: 2.96 µM
GI50 [13]: 1.61 µM
CC50 [13]: 5.66 µM
TGI [13]: 3.01 µM
GI50 [14]: 2.46 µM
LC50 [14]: 22.6 µM
TGI [14]: 6.45 µM
GI50 [15]: 2.79 µM
LC50 (concentration killing 50% of cells) [15]: > 100 µM
TGI [15]: 13.4 µM
GI50 [16]: 2.21 µM
CC50 [16]: > 100 µM
TGI [16]: 5.95 µM
GI50 [17]: 2.19 µM
CC50 [17]: > 100 µM
TGI [17]: 5.12 µM
TGI [18]: 4.05 µM
GI50 [18]: 1.9 µM
CC50 [18]: 8.65 µM
GI50 [19]: 1.55 µM
CC50 [19]: 5.79 µM
TGI [19]: 3.00 µM
GI50 [20]: 1.79 µM
CC50 [20]: 7.82 µM
TGI [20]: 3.74 µM
GI50 [21]: 1.66 µM
CC50 [21]: 6.41 µM
TGI [21]: 3.26 µM
GI50 [22]: 1.65 µM
CC50 [22]: 6.17 µM
TGI [22]: 3.19 µM
GI50 [23]: 1.57 µM
CC50 [23]: 38.8 µM
TGI [23]: 5.73 µM
GI50 [24]: 1.91 µM
CC50 [24]: > 100 µM
TGI [24]: 4.77 µM
GI50 [25]: 1.4 µM
CC50 [25]: 5.39 µM
TGI [25]: 2.75 µM
GI50 [26]: 1.65 µM
CC50 [26]: 7.1 µM
TGI [26]: 3.43 µM
